According to patent publication US9682940B2, “Indazole derivatives useful as CB-1 inverse agonists” (Janssen Pharmaceutica NV, priority 2015, dated 2017):
Where two headings read alike, the source gives them in different places.

Key:
[1] = molecular target: Human CB2R (Cannabanoid receptor 2) (Homo sapiens (Human), UniProt P34972); test: CB-2 in vitro cAMP (HTRF) assay in HEK-293 cells; assay type: cell-based; settings: HEK-293 cells stably transfected with human CB2R, 250 nM Forskolin, mean where tested more than once, read-out: CB-2 (HEK_cAMP) EC50
In short: (§1)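 HEK-293 cells stably expressing human CB1 or CB2 plated overnight, then tested in HBSS/5 mM HEPES/0.1% BSA with 0.5 mM IBMX and forskolin (1.5 μM working dilution). Intracellular cAMP quantified by competitive HTRF immunoassay (d2-cAMP, cryptate anti-cAMP) against a cAMP standard curve; compounds as 1/3 serial dilutions from 10 mM DMSO stocks.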

[2] = molecular target: Human CB1R (Cannabanoid receptor 1) (Homo sapiens (Human), UniProt P21554); test: CB-1 in vitro cAMP (HTRF) assay in HEK-293 cells; assay type: cell-based; settings: HEK-293 cells stably transfected with human CB1R, 250 nM Forskolin, mean where tested more than once, read-out: CB-1 (HEK_cAMP) EC50
In short: as §1

Mouse Fast PK/BBB [3] = assay type: in vivo, Male C57bl/6j mice; settings: oral; for concentration at 4 hr / concentration at 1 hr: male, C57bl/6j
Description: Male C57bl/6j mice were ordered from Charles River at 22-25 g and housed 3 per cage. They were fed standard chow (Purina 5001).
Male C57bl/6j mice were dosed with test compounds at 20 mg/kg or 30 mg/kg. Plasma was collected via retro-orbital bleeding at 1 hr and 4 hrs after dosing. Whole brain without cerebellum was collected at 4 hrs after dosing. Wet brain weight was recorded before freezing. Brains were homogenized in saline and sent for analysis for determination of concentration of test compound.

Mouse Fast PK/BBB [4] = assay type: in vivo, Male C57bl/6j mice; settings: male, C57bl/6j, brain, oral, Dose 30 mg/kg, read-out: BRAIN Mean Conc. (ng/mL) ± Std. Dev
[5] = DIO mice, 30 mg/kg daily
[6] = plasma, Dose 30 mg/kg, Time 1 hr, read-out: PLASMA Mean Conc. (ng/mL) ± Std. Dev
[7] = plasma, Dose 30 mg/kg, Time 4 hr, read-out: PLASMA Mean Conc. (ng/mL) ± Std. Dev

Chain of Human CB2R (Cannabanoid receptor 2) (P34972 whole entry): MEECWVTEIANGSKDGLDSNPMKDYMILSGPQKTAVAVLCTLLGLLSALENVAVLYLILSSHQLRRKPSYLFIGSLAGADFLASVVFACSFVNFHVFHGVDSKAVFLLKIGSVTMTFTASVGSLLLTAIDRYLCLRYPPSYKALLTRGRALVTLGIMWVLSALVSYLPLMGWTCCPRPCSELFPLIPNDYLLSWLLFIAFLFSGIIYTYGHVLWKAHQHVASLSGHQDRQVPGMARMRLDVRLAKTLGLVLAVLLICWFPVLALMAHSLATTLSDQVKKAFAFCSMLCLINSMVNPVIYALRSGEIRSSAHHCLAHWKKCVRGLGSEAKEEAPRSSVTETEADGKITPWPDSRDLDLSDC
Chain of Human CB1R (Cannabanoid receptor 1) (P21554 whole entry): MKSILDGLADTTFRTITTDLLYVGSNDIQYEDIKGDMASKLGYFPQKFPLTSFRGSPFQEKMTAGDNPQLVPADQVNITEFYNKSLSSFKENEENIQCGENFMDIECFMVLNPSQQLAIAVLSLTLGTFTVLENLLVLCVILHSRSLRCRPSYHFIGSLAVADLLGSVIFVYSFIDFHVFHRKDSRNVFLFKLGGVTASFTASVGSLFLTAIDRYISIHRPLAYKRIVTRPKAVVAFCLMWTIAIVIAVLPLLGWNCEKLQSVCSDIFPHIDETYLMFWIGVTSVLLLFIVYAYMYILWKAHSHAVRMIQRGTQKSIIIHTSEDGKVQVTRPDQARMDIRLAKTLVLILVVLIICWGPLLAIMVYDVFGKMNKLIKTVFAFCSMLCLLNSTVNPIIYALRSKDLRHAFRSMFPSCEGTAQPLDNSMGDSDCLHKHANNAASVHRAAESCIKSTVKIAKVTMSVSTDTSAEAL

O=S(=O)(c1cccc(O)c1)N1CCC(c2c3cc(C(c4ccc(Cl)cc4)c4ccc(Cl)cc4)ccc3nn2C2CC2)CC1 [Compound 151, 3-(4-(5-(bis(4-chlorophenyl)methyl)-2-cyclopropyl-2H-indazol-3-yl)piperidin-1-ylsulfonyl)phenol]
EC50 [1]: > 10000 nM | EC50 [2]: 6 nM | concentration at 4 hr (Mouse Fast PK/BBB [3]; brain, Dose 30 mg/kg, Time 4 hr, read-out: BRAIN Mean Conc. (ng/mL) ± Std. Dev): 31.4 ± 13.4 ng/mL | concentration at 1 hr (Mouse Fast PK/BBB [3]; [6]): 2740 ± 160 ng/mL | concentration at 4 hr (Mouse Fast PK/BBB [3]; [7]): 884 ± 584 ng/mL | concentration at 1 hr (Mouse Fast PK/BBB [4]): 41.8 ± 15.7 ng/mL

O=C(O)c1ccc([C@@H](c2ccc(Cl)cc2)c2ccc3[nH]nc(C4CCN(S(=O)(=O)C(F)(F)F)CC4)c3c2)cc1 [Compound 232]
EC50 [1]: > 10000 nM | EC50 [2]: 26 nM | BRAIN Mean Conc. (ng/mL) ± Std. Dev (ng/mL) (Mouse Fast PK/BBB [3]; Dose 30 mg/kg, Time 1 hr): BLOQ ± NA | PLASMA Mean Conc. (ng/mL) ± Std. Dev (Mouse Fast PK/BBB [3]; Dose 30 mg/kg, Time 1 hr): 1763 ± 474 ng/mL | BRAIN Mean Conc. (ng/mL) ± Std. Dev (ng/mL) (Mouse Fast PK/BBB [3]; Dose 30 mg/kg, Time 4 hr): BLOQ ± NA | PLASMA Mean Conc. (ng/mL) ± Std. Dev (Mouse Fast PK/BBB [3]; Dose 30 mg/kg, Time 4 hr): 196 ± 88.0 ng/mL

O=C(O)c1cccc(CN2CCC(c3nn(C4CC4)c4ccc(C(c5ccc(Cl)cc5)c5ccc(Cl)cc5)cc34)CC2)c1 [Compound 207]
EC50 [1]: 9700 nM | EC50 [2]: 9 nM | BRAIN Mean Conc. (ng/mL) ± Std. Dev (Mouse Fast PK/BBB [3]; Dose 30 mg/kg, Time 1 hr): 516 ± 44.2 ng/mL | PLASMA Mean Conc. (ng/mL) ± Std. Dev (Mouse Fast PK/BBB [3]; Dose 30 mg/kg, Time 1 hr): 7373 ± 867 ng/mL | BRAIN Mean Conc. (ng/mL) ± Std. Dev (Mouse Fast PK/BBB [3]; Dose 30 mg/kg, Time 4 hr): 1180 ± 115 ng/mL | PLASMA Mean Conc. (ng/mL) ± Std. Dev (Mouse Fast PK/BBB [3]; Dose 30 mg/kg, Time 4 hr): 4317 ± 856 ng/mL

O=C(O)c1ccc([C@@H](c2ccc(Cl)cc2)c2ccc3[nH]nc(N4CCN(S(=O)(=O)C(F)(F)F)CC4)c3c2)cc1 [Compound 234]
EC50 [1]: > 10000 nM | EC50 [2]: 16 nM | BRAIN Mean Conc. (ng/mL) ± Std. Dev (Mouse Fast PK/BBB [3]; Dose 30 mg/kg, Time 1 hr): 11.2 ± 3.95 ng/mL | PLASMA Mean Conc. (ng/mL) ± Std. Dev (Mouse Fast PK/BBB [3]; Dose 30 mg/kg, Time 1 hr): 8693 ± 499 ng/mL | BRAIN Mean Conc. (ng/mL) ± Std. Dev (Mouse Fast PK/BBB [3]; Dose 30 mg/kg, Time 4 hr): 8.31 ± 2.31 ng/mL | PLASMA Mean Conc. (ng/mL) ± Std. Dev (Mouse Fast PK/BBB [3]; Dose 30 mg/kg, Time 4 hr): 979 ± 376 ng/mL

COc1cc(S(=O)(=O)N2CCC(c3c4cc(C(c5ccc(Cl)cc5)c5ccc(Cl)cc5)ccc4nn3C3CC3)CC2)ccc1C(=O)O [Compound 157, 4-(4-(5-(bis(4-chlorophenyl)methyl)-2-cyclopropyl-2H-indazol-3-yl)piperidin-1-ylsulfonyl)-2-methoxybenzoic acid]
EC50 [1]: 4030 nM | EC50 [2]: 2 nM | concentration at 1 hr (Mouse Fast PK/BBB [3]; [6]): 241 ± 117 ng/mL | concentration at 4 hr (Mouse Fast PK/BBB [3]; [7]): 13 ± 1.7 ng/mL | BRAIN Mean Conc. (ng/mL) ± Std. Dev (ng/mL) (Mouse Fast PK/BBB [3]; Dose 30 mg/kg, Time 1 hr): BLOQ ± NA | BRAIN Mean Conc. (ng/mL) ± Std. Dev (ng/mL) (Mouse Fast PK/BBB [3]; Dose 30 mg/kg, Time 4 hr): BLOQ ± NA

O=S(=O)(N1CCC(c2n[nH]c3ccc(C(c4ccc(Cl)cc4)c4ccc(Cl)cc4)cc23)CC1)C(F)(F)F [Compound 17, 5-(bis(4-chlorophenyl)methyl)-3-(1-(trifluoromethylsulfonyl)piperidin-4-yl)-1H-indazole]
EC50 [2]: 6 nM | BRAIN Mean Conc. (ng/mL) ± Std. Dev (Mouse Fast PK/BBB [3]; Dose 20 mg/kg, Time 1 hr): 51.8 ± 16.6 ng/mL | PLASMA Mean Conc. (ng/mL) ± Std. Dev (Mouse Fast PK/BBB [3]; Dose 20 mg/kg, Time 1 hr): 4478.2 ± 1576.9 ng/mL | BRAIN Mean Conc. (ng/mL) ± Std. Dev (Mouse Fast PK/BBB [3]; Dose 20 mg/kg, Time 4 hr): 103.2 ± 10.8 ng/mL | PLASMA Mean Conc. (ng/mL) ± Std. Dev (Mouse Fast PK/BBB [3]; Dose 20 mg/kg, Time 4 hr): 3444.4 ± 1058.9 ng/mL | Fed Blood Glucose (Std Err) ([5]; Day 0): 174 (9) mg/dL | Mean Body Weight (in Grams (Std Err)) ([5]; Day 0): 42.3 (1.0) Grams | Mean Body Weight (in Grams (Std Err)) ([5]; Day 1): 40.2 (1.1) Grams | Mean Daily Food Intake (in Grams (Std Err)) ([5]; Day 1): 0.8 (0.3) Grams | Mean Body Weight (in Grams (Std Err)) ([5]; Day 2): 38.3 (1.0) Grams | Mean Daily Food Intake (in Grams (Std Err)) ([5]; Day 2): 0.3 (0.1) Grams | Mean Body Weight (in Grams (Std Err)) ([5]; Day 3): 37.2 (1.1) Grams | Mean Daily Food Intake (in Grams (Std Err)) ([5]; Day 3): 0.5 (0.1) Grams | Fed Blood Glucose (Std Err) ([5]; Day 4): 150 (7) mg/dL | Mean Body Weight (in Grams (Std Err)) ([5]; Day 4): 36.3 (1.0) Grams | Mean Daily Food Intake (in Grams (Std Err)) ([5]; Day 4): 0.8 (0.1) Grams | Plasma Insulin (Std Err) ([5]; day 5, 2 hours after dose): 1.24 (0.28) ng/mL

O=S(=O)(N1CCC(c2n[nH]c3ccc(C(c4ccc(Cl)cc4)c4ccc(Cl)cc4)cc23)CC1)C(F)(F)F [Compound 35]
EC50 [1]: > 10000 nM | EC50 [2]: 5 nM | BRAIN Mean Conc. (ng/mL) ± Std. Dev (ng/mL) (Mouse Fast PK/BBB [3]; Dose 20 mg/kg, Time 1 hr): BLOQ ± NA | PLASMA Mean Conc. (ng/mL) ± Std. Dev (Mouse Fast PK/BBB [3]; Dose 20 mg/kg, Time 1 hr): 3613 ± 253 ng/mL | BRAIN Mean Conc. (ng/mL) ± Std. Dev (ng/mL) (Mouse Fast PK/BBB [3]; Dose 20 mg/kg, Time 4 hr): BLOQ ± NA | PLASMA Mean Conc. (ng/mL) ± Std. Dev (Mouse Fast PK/BBB [3]; Dose 20 mg/kg, Time 4 hr): 611 ± 125 ng/mL

NC(=O)c1cccc(CN2CCC(c3nn(C4CC4)c4ccc(C(c5ccc(Cl)cc5)c5ccc(Cl)cc5)cc34)CC2)c1 [Compound 206]
EC50 [1]: > 10000 nM | EC50 [2]: 8 nM | BRAIN Mean Conc. (ng/mL) ± Std. Dev (Mouse Fast PK/BBB [3]; Dose 30 mg/kg, Time 1 hr): 21.5 ng/mL | PLASMA Mean Conc. (ng/mL) ± Std. Dev (Mouse Fast PK/BBB [3]; Dose 30 mg/kg, Time 1 hr): 333.5 ± 70.5 ng/mL | BRAIN Mean Conc. (ng/mL) ± Std. Dev (Mouse Fast PK/BBB [3]; Dose 30 mg/kg, Time 4 hr): 30.6 ± 6.5 ng/mL | PLASMA Mean Conc. (ng/mL) ± Std. Dev (Mouse Fast PK/BBB [3]; Dose 30 mg/kg, Time 4 hr): 532.8 ± 58.9 ng/mL

O=C(O)c1cccc(C(=O)N2CCC(c3c4cc(C(c5ccc(Cl)cc5)c5ccc(Cl)cc5)ccc4nn3C3CC3)CC2)c1 [Compound 111]
EC50 [1]: > 10000 nM | EC50 [2]: 3500 nM

O=C(O)CCC(=O)N1CCC(c2nn(C3CC3)c3ccc(C(c4ccc(Cl)cc4)c4ccc(Cl)cc4)cc23)CC1 [Compound 107]
EC50 [1]: > 10000 nM | EC50 [2]: 920 nM

O=S(=O)(N1CCC(c2nn(-c3nccs3)c3ccc(C(c4ccc(Cl)cc4)c4ccc(Cl)cc4)cc23)CC1)C(F)(F)F [Compound 37]
EC50 [1]: > 10000 nM | EC50 [2]: 8 nM

O=C(c1c[nH]nn1)N1CCC(c2n[nH]c3ccc(C(c4ccc(Cl)cc4)c4ccc(Cl)cc4)cc23)CC1 [Compound 145]
EC50 [1]: > 10000 nM | EC50 [2]: 49 nM

NC(=O)Cc1ccc(N2CCC(c3n[nH]c4ccc(C(c5ccc(Cl)cc5)c5ccc(Cl)cc5)cc34)CC2)cc1 [Compound 223]
EC50 [1]: > 10000 nM | EC50 [2]: 699 nM

O=S(=O)(N1CCC(c2nn(-c3ccc(Cl)c(Cl)c3)c3ccc(C(c4ccc(Cl)cc4)c4ccc(Cl)cc4)cc23)CC1)C(F)(F)F [Compound 58]
EC50 [1]: > 10000 nM | EC50 [2]: 13 nM
